Measurements reported in patent publication US20040072770A1, “Methods for specifically inhibiting histone deacetylase-7 and 8” (priority 2002, published 2004).
d = 2'-deoxy (DNA); m = 2'-O-methyl

Tests used:
A549 cells [1] = assay: Growth inhibition by antisense oligos, A549; type: cell-based, human; conditions: 50 nM, 48 hour, vs cells treated with lipofectin
Method: (§1) For all ex vivo oligo treatment, human A549 human […] carcinoma cells were seeded in 10 cm tissue culture dishes one day prior to oligonucleotide treatment. The cell lines were obtained from the American Type Culture Collection (ATCC) (Manassas, Va.) and were grown under the recommended culture conditions. Before the addition of the oligonucleotides, cells were washed with PBS (phosphate buffered saline). Next, lipofectin transfection reagent (GIBCO BRL Mississauga, Ontario, Calif.), at a concentration of 6.25 μg/ ml, was added to serum free OPTIMEM medium (GIBCO BRL, Rockville, Md.), which was then added to the cells. The oligonucleotides were added directly to the cells (i.e., one oligonucleotide per plate of cells). Mismatched oligonucleotides were used as controls. The same concentration of oligonucleotide (e.g., 50 nM) was used per plate of cells for each oligonucleotide tested.
(§2) In order to determine the effect of HDAC ODNs on cell growth inhibition and cell death through apoptosis, A549, T24, DuI45, HCT116 cells (ATCC, Manassas, Va.), or HMEC cells (BioWhittaker, Walkersville, Md.) were treated with HDAC ODNs as previously described.
(§3) For the cell growth inhibition analysis, human cancer or normal cells were treated with 50 nM of paired AS or MM oligos directed against human HDAC-1, HDAC-7 or HDAC-8for up to 96 hours. Cell numbers were counted every day by trypan blue exclusion. Percentage of inhibition was calculated as (100 - AS cell numbers/control cell numbers)%.

Du145 cells = assay: Growth inhibition by antisense oligos, Du145; type: cell-based, human; conditions: 50 nM, 48 hour, vs cells treated with lipofectin
Method: as §1, §2, §3

A549 cells [2] = assay: Apoptosis (Cell Death Detection ELISA), A549; type: cell-based, human; conditions: 50 nM, 48 hours, over mismatch control
Method: as §1, §2
(§4) For the apoptosis study, cells were analyzed using the Cell Death Detection ELISA^Plus kit (Roche Diagnostic GmBH, Mannheim, Germany) according to the manufacturer's directions. Typically, 10,000 cells were plated in 96-well tissue culture dishes for 2 hours before harvest and lysis. Each sample was analyzed in duplicate. ELISA reading was done using a MR700 plate reader (DYNEX Technology, Ashford, Middlesex, England) at 410 nm. The reference was set at 490 nm.
[…] Similarly, A549 cells were treated with 20 nM of HDAC1 AS in combination with 20 nM of each of AS inhibitors against human HDAC2 to HDAC8. After 48 hour treatment, A549 cells were harvested and analyzed for apoptosis by ELISA as described previously. Apoptosis of A549 cells by AS inhibition was compared to that of cells treated with 1 uM TSA for 16 hours. […] The control oligo UMM had no effect on induction of apoptosis.

T24 cells = assay: Apoptosis (Cell Death Detection ELISA), T24; type: cell-based, human; conditions: 50 nM, 48 hours, over mismatch control
Method: as §1, §2, §4

HCT116 cells [3] = assay: Inhibition of agar colony formation, HCT116; type: cell-based, human; conditions: 50 nM oligos for 48 hours, vs cells treated with lipofectin
human HDAC-8 mRNA = assay: HDAC-8 mRNA expression in A549 cells, Northern blot; type: cell-based
Method: To identify antisense oligodeoxynucleotides (ODN) capable of inhibiting HDAC-8 expression in human cancer cells, fourteen phosphorothioate ODNs containing sequences complementary to the 5′ or 3′ UTR of the human […] (GenBank Accession No. AF230097) were initially screened in A549 cells at 100 nM. Cells were harvested after 24 hours of treatment, and HDAC-8 RNA expression was analyzed by Northern blot analysis. […] Total RNAs were harvested and were analyzed by Northern Blot. GAPDH expression was analyzed to indicate total RNA loading in each lane.
In order to determine the dose response of HDAC7 antisense inhibitors to reduce HDAC7 message at the mRNA level, Human A549 cells were treated with 25 or 50 nM of antisense (AS1 and AS2) oligos directed against human HDAC-7 or the corresponding mismatch of AS1 (MM1) oligo or an universal mismatch (UMM) for 24 hours. […] The time dependence of HDAC7 antisense inhibitors on blocking HDAC7 gene expression at the mRNA level was analyzed by treating A549 cells with 50 nM AS1 or MM1 oligos. […] Similarly, A549 cells were treated with 25 nM or 50 nM of AS1 or AS2 oligos directed against human HDAC-8 or its MM oligo for AS2 (MM2) for 24 hours. AS-2 oligo against human HDAC8 at 50 nM was also used to treat A549 cells for 24 or 48 hours.
as §1
Cells were harvested, and total RNAs were analyzed by Northern blot analysis. Briefly, total RNA was extracted using RNeasy miniprep columns (QIAGEN Canada, Mississauga, Ontario). Ten to twenty […] of total RNA was run on a formaldehyde-containing 1% agarose gel with 0.5 M sodium phosphate (pH 7.0) as the buffer system. RNAs were then transferred to nitrocellulose membranes and hybridized with the indicated radiolabeled DNA probes. Autoradiography was performed using conventional procedures.

human HDAC-6 RNA = assay: HDAC-6 RNA expression screen, Northern blot; type: cell-based; conditions: screened as above (T24 cells, 100 nM, 24 hours)
Method: (§5) To identify antisense oligodeoxynucleotide (ODN) capable of inhibiting HDAC-1 expression in human cancer cells, eleven phosphorothioate ODNs containing sequences complementary to the 5′ or 3′ UTR of the human HDAC-1 gene (GenBank Accession No. U50079) were initially screened in T24 cells at 100 nM. Cells were harvested after 24 hours of treatment, and HDAC-1 RNA expression was analyzed by Northern blot analysis. […] HDAC-1 MM oligo was created as a control; compared to the antisense oligo, it has a 6-base mismatch.
Thirteen phosphorothloate ODNs containing sequences complementary to the 5′ or 3′ untranslated regions of the human HDAC-6 gene (GenBank Accession No. AJ011972) were screened as above. […] HDAC-6 MM oligo was created as a control; compared to the antisense oligo, it contains a 7-base mismatch.

human HDAC-2 RNA = assay: HDAC-2 RNA expression screen, Northern blot; type: cell-based; conditions: screened as above (T24 cells, 100 nM, 24 hours)
Method: as §5
Twenty-four phosphorothioate ODNs containing sequences complementary to the 5′ or 3′ UTR of the human HDAC-2 gene (GenBank Accession No. U31814) were screened as above. […] HDAC-2 MM was created as a control; compared to the antisense oligo, it contains a 7-base mismatch.

HCT116 cells [4] = assay: Growth inhibition by antisense oligos, HCT116; type: cell-based, human; conditions: 50 nM, 48 hour, vs cells treated with lipofectin
Method: as §1, with “tested. […]” for “tested.”
as §3

MDAmb231 cells [5] = assay: Growth inhibition by antisense oligos, MDAmb231; type: cell-based, human; conditions: 50 nM, 48 hour, vs cells treated with lipofectin
Method: [The procedure below names another cell line; the source lists this cell line under the same test.] as §1, with “tested. […]” for “tested.”
as §3

MDAmb231 cells [6] = assay: Apoptosis (Cell Death Detection ELISA), MDAmb231; type: cell-based, human; conditions: 50 nM, 48 hours, over mismatch control
MDAmb231 cells [7] = assay: Inhibition of agar colony formation, MDAmb231; type: cell-based, human; conditions: 50 nM oligos for 48 hours, vs cells treated with lipofectin
mammalian HDAC = conditions: Yoshida et al., J. Biol. Chem. 265:17174-17179 (1990); cited from earlier work
[8] = tested on: murine erythroleukemia cells; conditions: Yoshida et al, Cancer Res. 47:3688-3691 (1987); cited from earlier work

Molecule	Growth Inhibition A549 (A549 cells [1])	Growth Inhibition Du145 (Du145 cells)	Apoptosis A549 (A549 cells [2])	Apoptosis T24 (T24 cells)	inhibition of agar colony formation HCT 116 (HCT116 cells [3])	also measured
5′-AGCCAGCTGCCACTTGAUGC-3′ (sugars from the 5' end m4 d12 m4, all phosphorothioate, methylation of C not given here) [HD8 AS2, antisense oligo, Human HDAC8 3′-UTR]	+ (“+” means >35% inhibition of cell growth by antisense oligos (50 nM, 48 hour) compared to that of cells treated with lipofectin)	+ (“+” means >35% inhibition of cell growth by antisense oligos (50 nM, 48 hour) compared to that of cells treated with lipofectin)	+ (“+” means the induction of apoptosis at least 2 fold over mismatch control (50 nM, 48 hours))	+ (“+” means the induction of apoptosis at least 2 fold over mismatch control (50 nM, 48 hours))	+ (“+” means >35% inhibition of agar colony formation of cells treated with 50 nM oligos for 48 hours compared to that of cells treated with lipofectin)	HDAC-8 mRNA expression, dose response (FIG. 5) (human HDAC-8 mRNA; 25 nM or 50 nM, 24 hours): inhibited in a dose-dependent manner; HDAC-8 mRNA expression, time course (FIG. 6) (human HDAC-8 mRNA; 50 nM, 24 or 48 hours): significantly block HDAC8 expression at the mRNA level by 24 hours; HDAC-8 RNA expression, initial screen (human HDAC-8 mRNA; 100 nM, 24 hours): good antisense activities
5′-CAGGCTGGAATGAGCTACAG-3′ (sugars from the 5' end m4 d12 m4, all phosphorothioate, methylation of C not given here) [HD6 AS, antisense oligo, Human HDAC6 3′-UTR]						HDAC-6 RNA expression, screen (human HDAC-6 RNA): antisense activity to human HDAC-6
5′-GCUGAGCTGTTCTGATUUGG-3′ (sugars from the 5' end m4 d12 m4, all phosphorothioate, methylation of C not given here) [HD2 AS, antisense oligo, Human HDAC2 3′-UTR]		+ (“+” means >35% inhibition of cell growth by antisense oligos (50 nM, 48 hour) compared to that of cells treated with lipofectin)				HDAC-2 RNA expression, screen (human HDAC-2 RNA): antisense activity to human HDAC-2
5′-GCUGCCTGCCGTGCCCACCC-3′ (sugars from the 5' end m4 d12 m4, all phosphorothioate, methylation of C not given here) [HD4 AS1, antisense oligo, Human HDAC4 5′-UTR]	+ (“+” means >35% inhibition of cell growth by antisense oligos (50 nM, 48 hour) compared to that of cells treated with lipofectin)	+ (“+” means >35% inhibition of cell growth by antisense oligos (50 nM, 48 hour) compared to that of cells treated with lipofectin)	+ (“+” means the induction of apoptosis at least 2 fold over mismatch control (50 nM, 48 hours))	+ (“+” means the induction of apoptosis at least 2 fold over mismatch control (50 nM, 48 hours))	+ (“+” means >35% inhibition of agar colony formation of cells treated with 50 nM oligos for 48 hours compared to that of cells treated with lipofectin)	Growth Inhibition HCT 116 (HCT116 cells [4]): + (“+” means >35% inhibition of cell growth by antisense oligos (50 nM, 48 hour) compared to that of cells treated with lipofectin); Growth Inhibition MDAmb 231 (MDAmb231 cells [5]): + (“+” means >35% inhibition of cell growth by antisense oligos (50 nM, 48 hour) compared to that of cells treated with lipofectin); Apoptosis MDAmb 231 (MDAmb231 cells [6]): + (“+” means the induction of apoptosis at least 2 fold over mismatch control (50 nM, 48 hours)); inhibition of agar colony formation MDAmb 231 (MDAmb231 cells [7]): + (“+” means >35% inhibition of agar colony formation of cells treated with 50 nM oligos for 48 hours compared to that of cells treated with lipofectin)
CC(/C=C/C(=O)NO)=C\[C@@H](C)C(=O)c1ccc(N(C)C)cc1 [TSA, (R)-Trichostatin A]						inhibition of mammalian HDAC (mammalian HDAC): potent inhibitor; induction of differentiation [8]: potent inducer of differentiation
